In publication PMC7531004, “Discovery of gramicidin A analogues with altered activities by multidimensional screening of a one-bead-one-compound library” (Nature Communications, 2020):
Where a SMILES comes first, the peptide text is derived from it. [ ]: non-standard residue; d: D form. The star is where a group is joined. NHCH2CH2OH = OCCN*; For = O=C*

What was measured:
[1] = H+/Na+ transport assay of bead-derived peptides (one-point); assay type: biochemical; parameters: key: relative activity; mean of two control wells = 1.00; conditions: bead-derived peptide solution, EYPC/EYPG LUVs;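 note: relative to parent gramicidin A activity set to 1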
How it was run: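 Miniaturized 96-well format. LUVs with entrapped pyranine (1.0 mM) were exposed to peptide for 30 min at RT. Intensities were expressed relative to full lysis by Triton X-100 and no treatment, with control-well mean = 1.00.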

[2] = tested on: Streptococcus pyogenes SSI-9; test: Antibacterial activity assay of bead-derived peptides (three concentrations); assay type: cell-based; parameters: key: +++: inhibition by the 640-fold diluted peptide solution; ++: inhibition by the 160-fold diluted solution; +: inhibition by the 40-fold diluted solution; -: no inhibition; conditions: S. pyogenes, bead-derived peptide solution, three concentrations
How it was run: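 Growth inhibition scored visually as precipitated bacteria after 37 °C, 18 h incubation. Streptococcus pyogenes SSI-9 inoculum of 2 × 10^5 CFU in Ca2+/Mg2+-adjusted Mueller Hinton broth plus 5% laked horse blood; peptides tested at three levels: stock, 4-fold and 16-fold DMSO dilutions.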

[3] = tested on: P388 mouse leukemia cells; conditions: 92 h
How it was run: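 Peptide stocks diluted 250× in growth medium; P388 cells 1 × 10^4 cells/mL final; 37 °C, 5% CO2, 92 h. WST-1 + 1-methoxy PMS, 4 h, A415. Output: % viability.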

Compound: CC(C)C[C@@H](NC(=O)[C@H](C)NC(=O)[C@H](NC(=O)[C@H](C)NC(=O)CNC(=O)[C@@H](NC=O)C(C)C)C(C)C)C(=O)N[C@H](C(=O)N[C@@H](C(=O)N[C@@H](Cc1c[nH]c2ccccc12)C(=O)N[C@@H](C(=O)N[C@@H](Cc1c[nH]c2ccccc12)C(=O)N[C@H](CC(C)C)C(=O)N[C@@H](Cc1c[nH]c2ccccc12)C(=O)N[C@H](CC(C)C)C(=O)N[C@@H](Cc1c[nH]c2ccccc12)C(=O)NCCO)[C@H](C)O)[C@H](C)O)C(C)C [compound 10517] (For-VGA[dV]A[dL]V[dT]W[dT]W[dL]W[dL]W-NHCH2CH2OH)
- H+/Na+ transport activity normalized against the value of 1 (1.00) [1]: 1.05
- antibacterial activity [2]: -
- cell viability/% [3]: 100.0%

Compound: CC(C)C[C@@H](NC(=O)[C@H](Cc1c[nH]c2ccccc12)NC(=O)[C@H](NC(=O)[C@H](Cc1c[nH]c2ccccc12)NC(=O)[C@@H](CC(C)C)NC(=O)[C@H](Cc1c[nH]c2ccccc12)NC(=O)[C@@H](CC(C)C)NC(=O)[C@@H](NC(=O)[C@H](NC(=O)[C@H](C)NC(=O)[C@H](NC(=O)[C@H](C)NC(=O)CNC(=O)[C@@H](NC=O)C(C)C)C(C)C)C(C)C)C(C)C)[C@H](C)O)C(=O)N[C@@H](Cc1c[nH]c2ccccc12)C(=O)NCCO [compound 457] (For-VGA[dV]A[dV]V[dL]W[dL]W[dT]W[dL]W-NHCH2CH2OH)
- H+/Na+ transport activity normalized against the value of 1 (1.00) [1]: 1.08
- antibacterial activity [2]: +
- cell viability/% [3]: 95.8%

Compound: CC(C)C[C@@H](NC(=O)[C@H](C)NC(=O)CNC(=O)[C@@H](NC=O)C(C)C)C(=O)N[C@@H](C)C(=O)N[C@@H](C(=O)N[C@H](C(=O)N[C@@H](C(=O)N[C@@H](Cc1c[nH]c2ccccc12)C(=O)N[C@@H](C(=O)N[C@@H](Cc1c[nH]c2ccccc12)C(=O)N[C@H](CC(C)C)C(=O)N[C@@H](Cc1c[nH]c2ccccc12)C(=O)N[C@@H](C(=O)N[C@@H](Cc1c[nH]c2ccccc12)C(=O)NCCO)C(C)C)C(C)C)C(C)C)C(C)C)C(C)C [compound 5393] (For-VGA[dL]A[dV]V[dV]W[dV]W[dL]W[dV]W-NHCH2CH2OH)
- H+/Na+ transport activity normalized against the value of 1 (1.00) [1]: 1.32
- antibacterial activity [2]: +
- cell viability/% [3]: 100.0%

Compound: CNC(=O)C[C@@H](NC(=O)[C@H](Cc1c[nH]c2ccccc12)NC(=O)[C@H](NC(=O)[C@H](Cc1c[nH]c2ccccc12)NC(=O)[C@H](NC(=O)[C@H](Cc1c[nH]c2ccccc12)NC(=O)[C@@H](CC(C)C)NC(=O)[C@@H](NC(=O)[C@H](NC(=O)[C@H](C)NC(=O)[C@@H](CC(C)C)NC(=O)[C@H](C)NC(=O)CNC(=O)[C@@H](NC=O)C(C)C)C(C)C)C(C)C)C(C)C)C(C)C)C(=O)N[C@@H](Cc1c[nH]c2ccccc12)C(=O)NCCO [compound 6520] (For-VGA[dL]A[dV]V[dL]W[dV]W[dV]W[dD](NHMe)W-NHCH2CH2OH)
- H+/Na+ transport activity normalized against the value of 1 (1.00) [1]: 1.08
- antibacterial activity [2]: -
- cell viability/% [3]: 100.0%

Compound: CC(C)C[C@@H](NC(=O)[C@H](Cc1c[nH]c2ccccc12)NC(=O)[C@@H](CC(C)C)NC(=O)[C@H](Cc1c[nH]c2ccccc12)NC(=O)[C@H](NC(=O)[C@H](Cc1c[nH]c2ccccc12)NC(=O)[C@H](NC(=O)[C@@H](NC(=O)[C@H](NC(=O)[C@H](C)NC(=O)[C@H](NC(=O)[C@H](C)NC(=O)CNC(=O)[C@@H](NC=O)C(C)C)C(C)C)C(C)C)C(C)C)C(C)C)C(C)C)C(=O)N[C@@H](Cc1c[nH]c2ccccc12)C(=O)NCCO [compound 10649] (For-VGA[dV]A[dV]V[dV]W[dV]W[dL]W[dL]W-NHCH2CH2OH)
- H+/Na+ transport activity normalized against the value of 1 (1.00) [1]: 1.19
- antibacterial activity [2]: ++
- cell viability/% [3]: 100.0%

Compound: CC(C)C[C@@H](NC(=O)[C@H](Cc1c[nH]c2ccccc12)NC(=O)[C@H](NC(=O)[C@H](Cc1c[nH]c2ccccc12)NC(=O)[C@H](NC(=O)[C@H](Cc1c[nH]c2ccccc12)NC(=O)[C@H](NC(=O)[C@@H](NC(=O)[C@H](NC(=O)[C@H](C)NC(=O)[C@H](NC(=O)[C@H](C)NC(=O)CNC(=O)[C@@H](NC=O)C(C)C)[C@H](C)O)C(C)C)C(C)C)C(C)C)C(C)C)C(C)C)C(=O)N[C@@H](Cc1c[nH]c2ccccc12)C(=O)NCCO [compound 9354] (For-VGA[dT]A[dV]V[dV]W[dV]W[dV]W[dL]W-NHCH2CH2OH)
- H+/Na+ transport activity normalized against the value of 1 (1.00) [1]: 1.16
- antibacterial activity [2]: -
- cell viability/% [3]: 100.0%

Compound: CC(C)C[C@@H](NC(=O)[C@H](C)NC(=O)[C@H](NC(=O)[C@H](C)NC(=O)CNC(=O)[C@@H](NC=O)C(C)C)C(C)C)C(=O)N[C@H](C(=O)N[C@H](CC(C)C)C(=O)N[C@@H](Cc1c[nH]c2ccccc12)C(=O)N[C@@H](C(=O)N[C@@H](Cc1c[nH]c2ccccc12)C(=O)N[C@@H](C(=O)N[C@@H](Cc1c[nH]c2ccccc12)C(=O)N[C@@H](C(=O)N[C@@H](Cc1c[nH]c2ccccc12)C(=O)NCCO)C(C)C)C(C)C)C(C)C)C(C)C [compound 2212] (For-VGA[dV]A[dL]V[dL]W[dV]W[dV]W[dV]W-NHCH2CH2OH)
- H+/Na+ transport activity normalized against the value of 1 (1.00) [1]: 1.18
- antibacterial activity [2]: +
- cell viability/% [3]: 11.5%

Compound: CC(C)C[C@@H](NC(=O)[C@H](Cc1c[nH]c2ccccc12)NC(=O)[C@H](NC(=O)[C@H](Cc1c[nH]c2ccccc12)NC(=O)[C@H](NC(=O)[C@H](Cc1c[nH]c2ccccc12)NC(=O)[C@H](NC(=O)[C@@H](NC(=O)[C@H](NC(=O)[C@H](C)NC(=O)[C@H](NC(=O)[C@H](C)NC(=O)CNC(=O)[C@@H](NC=O)C(C)C)C(C)C)C(C)C)C(C)C)C(C)C)C(C)C)C(C)C)C(=O)N[C@@H](Cc1c[nH]c2ccccc12)C(=O)NCCO [compound 2182] (For-VGA[dV]A[dV]V[dV]W[dV]W[dV]W[dL]W-NHCH2CH2OH)
- H+/Na+ transport activity normalized against the value of 1 (1.00) [1]: 1.28
- antibacterial activity [2]: ++
- cell viability/% [3]: 100.0%

Compound: CC(C)C[C@@H](NC(=O)[C@H](C)NC(=O)CNC(=O)[C@@H](NC=O)C(C)C)C(=O)N[C@@H](C)C(=O)N[C@H](CC(C)C)C(=O)N[C@H](C(=O)N[C@H](CC(C)C)C(=O)N[C@@H](Cc1c[nH]c2ccccc12)C(=O)N[C@@H](C(=O)N[C@@H](Cc1c[nH]c2ccccc12)C(=O)N[C@H](CC(C)C)C(=O)N[C@@H](Cc1c[nH]c2ccccc12)C(=O)N[C@@H](C(=O)N[C@@H](Cc1c[nH]c2ccccc12)C(=O)NCCO)C(C)C)C(C)C)C(C)C [compound 6096] (For-VGA[dL]A[dL]V[dL]W[dV]W[dL]W[dV]W-NHCH2CH2OH)
- H+/Na+ transport activity normalized against the value of 1 (1.00) [1]: 1.16
- antibacterial activity [2]: +
- cell viability/% [3]: 7.3%

Compound: CC(C)C[C@@H](NC(=O)[C@H](C)NC(=O)CNC(=O)[C@@H](NC=O)C(C)C)C(=O)N[C@@H](C)C(=O)N[C@@H](C(=O)N[C@H](C(=O)N[C@@H](C(=O)N[C@@H](Cc1c[nH]c2ccccc12)C(=O)N[C@@H](C(=O)N[C@@H](Cc1c[nH]c2ccccc12)C(=O)N[C@@H](C(=O)N[C@@H](Cc1c[nH]c2ccccc12)C(=O)N[C@H](CC(C)C)C(=O)N[C@@H](Cc1c[nH]c2ccccc12)C(=O)NCCO)C(C)C)C(C)C)[C@H](C)O)C(C)C)C(C)C [compound 809] (For-VGA[dL]A[dV]V[dT]W[dV]W[dV]W[dL]W-NHCH2CH2OH)
- H+/Na+ transport activity normalized against the value of 1 (1.00) [1]: 1.13
- antibacterial activity [2]: -
- cell viability/% [3]: 100.0%

Compound: CC(C)C[C@@H](NC(=O)[C@H](Cc1c[nH]c2ccccc12)NC(=O)[C@H](NC(=O)[C@H](Cc1c[nH]c2ccccc12)NC(=O)[C@H](NC(=O)[C@H](Cc1c[nH]c2ccccc12)NC(=O)[C@@H](CC(C)C)NC(=O)[C@@H](NC(=O)[C@H](NC(=O)[C@H](C)NC(=O)[C@H](NC(=O)[C@H](C)NC(=O)CNC(=O)[C@@H](NC=O)C(C)C)C(C)C)C(C)C)C(C)C)C(C)C)C(C)C)C(=O)N[C@@H](Cc1c[nH]c2ccccc12)C(=O)NCCO [compound 448] (For-VGA[dV]A[dV]V[dL]W[dV]W[dV]W[dL]W-NHCH2CH2OH)
- H+/Na+ transport activity normalized against the value of 1 (1.00) [1]: 1.07
- antibacterial activity [2]: +
- cell viability/% [3]: 34.1%

Compound: CNC(=O)C[C@@H](NC(=O)[C@H](Cc1c[nH]c2ccccc12)NC(=O)[C@@H](CC(C)C)NC(=O)[C@H](Cc1c[nH]c2ccccc12)NC(=O)[C@H](NC(=O)[C@H](Cc1c[nH]c2ccccc12)NC(=O)[C@@H](CC(C)C)NC(=O)[C@@H](NC(=O)[C@H](NC(=O)[C@H](C)NC(=O)[C@H](NC(=O)[C@H](C)NC(=O)CNC(=O)[C@@H](NC=O)C(C)C)C(C)C)C(C)C)C(C)C)C(C)C)C(=O)N[C@@H](Cc1c[nH]c2ccccc12)C(=O)NCCO [compound 5538] (For-VGA[dV]A[dV]V[dL]W[dV]W[dL]W[dD](NHMe)W-NHCH2CH2OH)
- H+/Na+ transport activity normalized against the value of 1 (1.00) [1]: 1.06
- antibacterial activity [2]: -
- cell viability/% [3]: 100.0%

Compound: CC(C)C[C@@H](NC(=O)[C@H](C)NC(=O)CNC(=O)[C@@H](NC=O)C(C)C)C(=O)N[C@@H](C)C(=O)N[C@H](CC(C)C)C(=O)N[C@H](C(=O)N[C@@H](C(=O)N[C@@H](Cc1c[nH]c2ccccc12)C(=O)N[C@@H](C(=O)N[C@@H](Cc1c[nH]c2ccccc12)C(=O)N[C@H](CC(C)C)C(=O)N[C@@H](Cc1c[nH]c2ccccc12)C(=O)N[C@H](CC(C)C)C(=O)N[C@@H](Cc1c[nH]c2ccccc12)C(=O)NCCO)[C@H](C)O)[C@H](C)O)C(C)C [compound 4421] (For-VGA[dL]A[dL]V[dT]W[dT]W[dL]W[dL]W-NHCH2CH2OH)
- H+/Na+ transport activity normalized against the value of 1 (1.00) [1]: 1.12
- antibacterial activity [2]: -
- cell viability/% [3]: 100.0%
